Columns and labels:
[1] = molecular target: Tyrosine-protein kinase receptor TYRO3 (Homo sapiens) (UniProt Q06418); details: Compound concentration 1000.0 nM
[2] = molecular target: cAMP-dependent protein kinase catalytic subunit alpha (Homo sapiens) (UniProt P17612); details: Compound concentration 1000.0 nM
[3] = molecular target: Mitogen-activated protein kinase kinase kinase 11 (Homo sapiens) (UniProt Q16584); details: Compound concentration 1000.0 nM
[4] = molecular target: Tyrosine-protein kinase TXK (Homo sapiens) (UniProt P42681); details: Compound concentration 1000.0 nM
[5] = molecular target: Ribosomal protein S6 kinase alpha-6 (Homo sapiens) (UniProt Q9UK32); details: Compound concentration 1000.0 nM
[6] = molecular target: Interleukin-1 receptor-associated kinase 1 (Homo sapiens) (UniProt P51617); details: Compound concentration 1000.0 nM
[7] = molecular target: Serine/threonine-protein kinase 25 (Homo sapiens) (UniProt O00506); details: Compound concentration 1000.0 nM
[8] = system: Fibroblast growth factor receptor 3 (Homo sapiens), P22607 [G697C]; details: Compound concentration 1000.0 nM
[9] = molecular target: Leukocyte tyrosine kinase receptor (Homo sapiens) (UniProt P29376); details: Compound concentration 1000.0 nM
[10] = molecular target: G protein-coupled receptor kinase 4 (Homo sapiens) (UniProt P32298); details: Compound concentration 1000.0 nM
[11] = molecular target: Serine/threonine-protein kinase NIM1 (Homo sapiens) (UniProt Q8IY84); details: Compound concentration 1000.0 nM
[12] = molecular target: Serine/threonine-protein kinase WNK1 (Homo sapiens) (UniProt Q9H4A3); details: Compound concentration 1000.0 nM
[13] = molecular target: 5-hydroxytryptamine receptor 1B (Homo sapiens) (UniProt P28222); details: Compound concentration 10.0 uM
[14] = molecular target: Uncharacterized serine/threonine-protein kinase SBK3 (Homo sapiens) (UniProt P0C264); details: Compound concentration 1000.0 nM
[15] = molecular target: Maternal embryonic leucine zipper kinase (Homo sapiens) (UniProt Q14680); details: Compound concentration 1000.0 nM
[16] = molecular target: Dual specificity mitogen-activated protein kinase kinase 1 (Homo sapiens) (UniProt Q02750); details: Compound concentration 1000.0 nM
[17] = molecular target: Interleukin-1 receptor-associated kinase 4 (Homo sapiens) (UniProt Q9NWZ3); details: Compound concentration 1000.0 nM
[18] = molecular target: Serine/threonine-protein kinase Nek10 (Homo sapiens) (UniProt Q6ZWH5); details: Compound concentration 1000.0 nM
[19] = system: Mast/stem cell growth factor receptor Kit (Homo sapiens), P10721 [A829P]; details: Compound concentration 1000.0 nM
[20] = molecular target: Casein kinase I isoform epsilon (Homo sapiens) (UniProt P49674); details: Compound concentration 1000.0 nM
[21] = molecular target: Tyrosine-protein kinase Fer (Homo sapiens) (UniProt P16591); details: Compound concentration 1000.0 nM
[22] = molecular target: Tyrosine-protein kinase ABL2 (Homo sapiens) (UniProt P42684); details: Compound concentration 1000.0 nM
[23] = molecular target: Mitogen-activated protein kinase kinase kinase 2 (Homo sapiens) (UniProt Q9Y2U5); details: Compound concentration 1000.0 nM
[24] = molecular target: MAP kinase-activated protein kinase 2 (Homo sapiens) (UniProt P49137); details: Compound concentration 1000.0 nM
[25] = system: Phosphatidylinositol 4,5-bisphosphate 3-kinase catalytic subunit alpha isoform (Homo sapiens), P42336 [H1047L]; details: Compound concentration 1000.0 nM
[26] = molecular target: Focal adhesion kinase 1 (Homo sapiens) (UniProt Q05397); details: Compound concentration 1000.0 nM
[27] = molecular target: Tyrosine-protein kinase Blk (Homo sapiens) (UniProt P51451); details: Compound concentration 1000.0 nM
[28] = molecular target: Serine/threonine-protein kinase 16 (Homo sapiens) (UniProt O75716); details: Compound concentration 1000.0 nM
[29] = molecular target: Phosphatidylinositol 4-phosphate 5-kinase type-1 gamma (Homo sapiens) (UniProt O60331); details: Compound concentration 1000.0 nM
[30] = molecular target: Serine/threonine-protein kinase PAK 2 (Homo sapiens) (UniProt Q13177); details: Compound concentration 1000.0 nM
[31] = molecular target: Mitogen-activated protein kinase kinase kinase kinase 1 (Homo sapiens) (UniProt Q92918); details: Compound concentration 1000.0 nM
[32] = molecular target: Interleukin-1 receptor-associated kinase 3 (Homo sapiens) (UniProt Q9Y616); details: Compound concentration 1000.0 nM
[33] = molecular target: Cyclin-dependent kinase 7 (Homo sapiens) (UniProt P50613); details: Compound concentration 1000.0 nM
[34] = system: Tyrosine-protein kinase ABL1 (Homo sapiens), P00519 [H396P]; details: Compound concentration 1000.0 nM
[35] = molecular target: Mitogen-activated protein kinase kinase kinase kinase 5 (Homo sapiens) (UniProt Q9Y4K4); details: Compound concentration 1000.0 nM
[36] = molecular target: Tyrosine-protein kinase Lck (Homo sapiens) (UniProt P06239); details: Compound concentration 1000.0 nM
[37] = molecular target: Ribosomal protein S6 kinase alpha-2 (Homo sapiens) (UniProt Q15349); details: Compound concentration 1000.0 nM
[38] = molecular target: Serine/threonine-protein kinase 32A (Homo sapiens) (UniProt Q8WU08); details: Compound concentration 1000.0 nM
[39] = molecular target: Tyrosine-protein kinase Mer (Homo sapiens) (UniProt Q12866); details: Compound concentration 1000.0 nM
[40] = molecular target: Cyclin-dependent kinase-like 2 (Homo sapiens) (UniProt Q92772); details: Compound concentration 1000.0 nM
[41] = molecular target: Sodium-dependent dopamine transporter (Homo sapiens, UniProt Q01959); details: Compound concentration 10.0 uM
[42] = molecular target: Serine/threonine-protein kinase N2 (Homo sapiens) (UniProt Q16513); details: Compound concentration 1000.0 nM
[43] = molecular target: Ephrin type-A receptor 1 (Homo sapiens) (UniProt P21709); details: Compound concentration 1000.0 nM
[44] = molecular target: Calcium/calmodulin-dependent protein kinase type II subunit gamma (Homo sapiens) (UniProt Q13555); details: Compound concentration 1000.0 nM
[45] = system: Epidermal growth factor receptor (Homo sapiens), P00533 [UNDEFINED MUTATION]; details: Compound concentration 1000.0 nM

Chain of Serine/threonine-protein kinase 16 (Homo sapiens) (O75716 whole entry): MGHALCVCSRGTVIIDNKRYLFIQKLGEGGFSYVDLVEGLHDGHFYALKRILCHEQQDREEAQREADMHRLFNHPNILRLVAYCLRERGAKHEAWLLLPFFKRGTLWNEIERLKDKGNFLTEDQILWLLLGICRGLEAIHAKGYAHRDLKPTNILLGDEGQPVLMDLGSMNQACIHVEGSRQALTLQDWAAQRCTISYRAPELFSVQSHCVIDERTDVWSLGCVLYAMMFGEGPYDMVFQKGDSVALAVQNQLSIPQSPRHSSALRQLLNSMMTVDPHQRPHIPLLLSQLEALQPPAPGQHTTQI
Chain of Tyrosine-protein kinase Blk (Homo sapiens) (P51451 2-505 limits assumed): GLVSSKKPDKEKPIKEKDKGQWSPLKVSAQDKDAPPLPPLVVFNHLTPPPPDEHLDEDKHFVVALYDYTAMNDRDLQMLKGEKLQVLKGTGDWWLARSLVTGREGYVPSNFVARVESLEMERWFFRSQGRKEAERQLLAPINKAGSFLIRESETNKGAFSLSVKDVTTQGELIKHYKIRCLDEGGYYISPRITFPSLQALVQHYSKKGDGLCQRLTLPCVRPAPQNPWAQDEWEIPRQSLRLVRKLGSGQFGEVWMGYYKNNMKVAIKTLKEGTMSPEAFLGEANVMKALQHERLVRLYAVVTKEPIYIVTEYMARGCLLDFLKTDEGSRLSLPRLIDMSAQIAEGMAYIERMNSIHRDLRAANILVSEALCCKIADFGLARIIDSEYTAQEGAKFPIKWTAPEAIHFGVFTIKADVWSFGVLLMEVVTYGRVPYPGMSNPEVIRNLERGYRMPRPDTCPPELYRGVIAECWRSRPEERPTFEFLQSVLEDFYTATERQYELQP
Chain of Cyclin-dependent kinase-like 2 (Homo sapiens) (Q92772 whole entry): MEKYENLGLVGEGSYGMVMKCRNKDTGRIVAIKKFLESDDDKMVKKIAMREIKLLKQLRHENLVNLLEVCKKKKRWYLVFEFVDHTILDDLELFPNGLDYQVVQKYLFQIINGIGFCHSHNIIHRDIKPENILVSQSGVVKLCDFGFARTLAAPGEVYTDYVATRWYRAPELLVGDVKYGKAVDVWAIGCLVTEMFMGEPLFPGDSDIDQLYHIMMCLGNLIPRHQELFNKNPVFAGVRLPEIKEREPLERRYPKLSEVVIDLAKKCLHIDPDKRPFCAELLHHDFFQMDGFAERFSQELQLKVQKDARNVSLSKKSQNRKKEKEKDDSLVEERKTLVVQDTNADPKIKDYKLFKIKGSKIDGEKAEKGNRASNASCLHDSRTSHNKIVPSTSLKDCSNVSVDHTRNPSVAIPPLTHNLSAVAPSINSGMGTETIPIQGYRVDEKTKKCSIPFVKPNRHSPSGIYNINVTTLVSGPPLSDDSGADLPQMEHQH
Chain of Tyrosine-protein kinase Fer (Homo sapiens) (P16591 whole entry, looked up): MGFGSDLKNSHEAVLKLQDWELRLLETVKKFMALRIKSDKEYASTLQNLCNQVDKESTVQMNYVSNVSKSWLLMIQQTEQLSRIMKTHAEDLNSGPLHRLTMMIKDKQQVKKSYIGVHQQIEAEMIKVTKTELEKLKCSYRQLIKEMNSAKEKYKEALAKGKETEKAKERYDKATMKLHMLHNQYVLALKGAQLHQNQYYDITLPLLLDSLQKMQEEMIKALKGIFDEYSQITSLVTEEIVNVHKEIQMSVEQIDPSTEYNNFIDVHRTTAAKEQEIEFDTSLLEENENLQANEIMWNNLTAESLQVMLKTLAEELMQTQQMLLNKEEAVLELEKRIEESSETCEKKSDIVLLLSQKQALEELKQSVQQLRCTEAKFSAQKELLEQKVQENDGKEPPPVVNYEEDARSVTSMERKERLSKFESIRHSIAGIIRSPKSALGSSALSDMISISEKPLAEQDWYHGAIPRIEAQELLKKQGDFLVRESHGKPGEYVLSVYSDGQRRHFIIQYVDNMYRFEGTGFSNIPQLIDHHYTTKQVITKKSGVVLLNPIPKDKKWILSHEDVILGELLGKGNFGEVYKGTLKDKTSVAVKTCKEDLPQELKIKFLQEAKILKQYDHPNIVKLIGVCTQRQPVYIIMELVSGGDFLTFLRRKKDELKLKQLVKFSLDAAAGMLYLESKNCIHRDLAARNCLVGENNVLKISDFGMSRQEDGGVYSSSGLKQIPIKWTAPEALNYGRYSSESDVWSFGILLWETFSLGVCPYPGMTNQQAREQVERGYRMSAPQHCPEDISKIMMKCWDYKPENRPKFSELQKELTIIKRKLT
Chain of G protein-coupled receptor kinase 4 (Homo sapiens) (P32298 whole entry, looked up): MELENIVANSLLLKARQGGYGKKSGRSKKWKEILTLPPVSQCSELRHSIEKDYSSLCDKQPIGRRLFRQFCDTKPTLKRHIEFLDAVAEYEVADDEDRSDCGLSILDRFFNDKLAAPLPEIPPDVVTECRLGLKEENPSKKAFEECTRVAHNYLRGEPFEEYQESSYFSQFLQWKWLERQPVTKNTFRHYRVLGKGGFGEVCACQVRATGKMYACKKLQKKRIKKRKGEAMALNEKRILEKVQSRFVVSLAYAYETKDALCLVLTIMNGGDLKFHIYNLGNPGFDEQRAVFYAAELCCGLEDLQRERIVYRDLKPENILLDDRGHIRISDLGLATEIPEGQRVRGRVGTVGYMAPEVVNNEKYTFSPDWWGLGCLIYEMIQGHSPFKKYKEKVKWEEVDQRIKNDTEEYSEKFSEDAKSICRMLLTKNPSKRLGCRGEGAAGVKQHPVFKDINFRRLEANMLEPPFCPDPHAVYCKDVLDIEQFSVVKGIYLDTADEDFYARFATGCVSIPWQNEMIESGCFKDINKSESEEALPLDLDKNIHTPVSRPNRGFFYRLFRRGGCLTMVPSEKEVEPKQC
Chain of Cyclin-dependent kinase 7 (Homo sapiens) (P50613 whole entry): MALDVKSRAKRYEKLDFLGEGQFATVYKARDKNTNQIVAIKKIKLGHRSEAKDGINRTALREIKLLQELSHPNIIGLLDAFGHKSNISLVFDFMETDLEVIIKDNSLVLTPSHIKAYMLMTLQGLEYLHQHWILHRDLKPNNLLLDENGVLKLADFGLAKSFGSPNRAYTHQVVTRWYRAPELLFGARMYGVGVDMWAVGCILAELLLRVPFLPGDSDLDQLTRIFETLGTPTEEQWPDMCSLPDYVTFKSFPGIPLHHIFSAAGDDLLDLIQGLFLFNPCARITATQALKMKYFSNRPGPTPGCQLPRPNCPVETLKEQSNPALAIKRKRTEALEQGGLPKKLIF
Chain of Casein kinase I isoform epsilon (Homo sapiens) (P49674 whole entry, looked up, canonical isoform): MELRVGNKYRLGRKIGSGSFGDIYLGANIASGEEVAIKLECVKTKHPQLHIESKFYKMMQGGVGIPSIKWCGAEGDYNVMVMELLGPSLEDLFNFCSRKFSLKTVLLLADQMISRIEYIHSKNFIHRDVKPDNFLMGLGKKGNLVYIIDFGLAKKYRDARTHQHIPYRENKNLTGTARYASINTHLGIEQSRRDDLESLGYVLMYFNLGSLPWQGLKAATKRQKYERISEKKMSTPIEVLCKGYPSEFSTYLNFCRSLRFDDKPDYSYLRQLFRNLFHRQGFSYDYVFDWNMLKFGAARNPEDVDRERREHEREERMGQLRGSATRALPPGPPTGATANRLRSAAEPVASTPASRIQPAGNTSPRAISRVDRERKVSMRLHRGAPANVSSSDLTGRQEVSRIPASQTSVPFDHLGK
Chain of Interleukin-1 receptor-associated kinase 4 (Homo sapiens) (Q9NWZ3 whole entry): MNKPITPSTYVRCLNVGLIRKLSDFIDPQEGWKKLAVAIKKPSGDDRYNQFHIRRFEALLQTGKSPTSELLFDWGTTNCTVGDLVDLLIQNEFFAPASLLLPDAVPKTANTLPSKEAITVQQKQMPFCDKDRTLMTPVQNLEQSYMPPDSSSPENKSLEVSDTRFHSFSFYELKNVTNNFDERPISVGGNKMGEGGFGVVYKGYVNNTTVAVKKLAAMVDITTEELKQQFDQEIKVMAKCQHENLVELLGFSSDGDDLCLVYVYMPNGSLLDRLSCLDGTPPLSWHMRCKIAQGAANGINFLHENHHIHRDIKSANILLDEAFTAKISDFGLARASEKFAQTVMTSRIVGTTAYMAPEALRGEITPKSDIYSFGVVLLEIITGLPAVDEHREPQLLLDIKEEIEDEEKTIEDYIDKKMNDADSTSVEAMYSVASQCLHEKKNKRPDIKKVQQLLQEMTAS
Chain of Ribosomal protein S6 kinase alpha-6 (Homo sapiens) (Q9UK32 whole entry): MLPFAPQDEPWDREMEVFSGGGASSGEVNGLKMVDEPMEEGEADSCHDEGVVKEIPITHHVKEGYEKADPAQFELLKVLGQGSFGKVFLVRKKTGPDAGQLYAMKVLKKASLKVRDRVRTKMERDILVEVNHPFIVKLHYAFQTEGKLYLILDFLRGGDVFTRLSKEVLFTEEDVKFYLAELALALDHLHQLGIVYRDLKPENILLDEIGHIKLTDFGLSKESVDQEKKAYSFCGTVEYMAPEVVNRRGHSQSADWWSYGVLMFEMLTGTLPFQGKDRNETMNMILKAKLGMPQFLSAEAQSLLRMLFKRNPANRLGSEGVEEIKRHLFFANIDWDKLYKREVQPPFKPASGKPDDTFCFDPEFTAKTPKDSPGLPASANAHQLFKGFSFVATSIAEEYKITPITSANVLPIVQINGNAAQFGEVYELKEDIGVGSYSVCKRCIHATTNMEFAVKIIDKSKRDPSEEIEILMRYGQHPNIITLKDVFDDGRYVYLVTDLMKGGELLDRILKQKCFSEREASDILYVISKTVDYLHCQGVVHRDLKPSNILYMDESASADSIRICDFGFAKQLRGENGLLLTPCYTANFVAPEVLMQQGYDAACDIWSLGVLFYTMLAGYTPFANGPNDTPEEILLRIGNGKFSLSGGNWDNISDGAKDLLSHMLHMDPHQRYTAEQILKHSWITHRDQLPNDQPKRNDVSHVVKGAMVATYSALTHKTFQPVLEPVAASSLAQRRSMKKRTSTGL

SMILES: COc1cc(-c2cn([C@H]3CCc4c(F)cccc4N(CC(F)(F)F)C3=O)nn2)ccc1-n1cnc(C)c1
- residual activity [1]: 100%
- residual activity [2]: 100%
- residual activity [3]: 100%
- residual activity [4]: 100%
- residual activity [5]: 100%
- residual activity [6]: 100%
- residual activity [7]: 100%
- residual activity [8]: 100%
- residual activity [9]: 100%
- residual activity [10]: 100%
- residual activity [11]: 78%
- residual activity [12]: 100%
- inhibition [13]: 35%
- residual activity [14]: 100%
- residual activity [15]: 100%
- residual activity [16]: 100%
- residual activity [17]: 100%
- residual activity [18]: 100%
- residual activity [19]: 92%
- residual activity [20]: 80%
- residual activity [21]: 100%
- residual activity [22]: 100%
- residual activity [23]: 94%
- residual activity [24]: 100%
- residual activity [25]: 96%
- residual activity [26]: 100%
- residual activity [27]: 100%
- residual activity [28]: 100%
- residual activity [29]: 90%
- residual activity [30]: 91%
- residual activity [31]: 100%
- residual activity [32]: 100%
- residual activity [33]: 100%
- residual activity [34]: 100%
- residual activity [35]: 5.8%
- residual activity [36]: 100%
- residual activity [37]: 100%
- residual activity [38]: 100%
- residual activity [39]: 100%
- residual activity [40]: 67%
- inhibition [41]: 99.7%
- residual activity [42]: 100%
- residual activity [43]: 100%
- residual activity [44]: 100%
- residual activity [45]: 94%

SMILES: COc1cc(-c2cn([C@H]3CCc4ccccc4N(CC(F)(F)F)C3=O)nn2)ccc1-n1ccc(C)n1
- residual activity [1]: 100%
- residual activity [2]: 100%
- residual activity [3]: 100%
- residual activity [4]: 84%
- residual activity [5]: 91%
- residual activity [6]: 100%
- residual activity [7]: 100%
- residual activity [8]: 90%
- residual activity [9]: 100%
- residual activity [10]: 100%
- residual activity [11]: 80%
- residual activity [12]: 100%
- inhibition [13]: 30.8%
- residual activity [14]: 92%
- residual activity [15]: 96%
- residual activity [16]: 100%
- residual activity [17]: 95%
- residual activity [18]: 81%
- residual activity [19]: 68%
- residual activity [20]: 100%
- residual activity [21]: 100%
- residual activity [22]: 100%
- residual activity [23]: 100%
- residual activity [24]: 90%
- residual activity [25]: 97%
- residual activity [26]: 100%
- residual activity [27]: 100%
- residual activity [28]: 100%
- residual activity [29]: 100%
- residual activity [30]: 100%
- residual activity [31]: 100%
- residual activity [32]: 91%
- residual activity [33]: 87%
- residual activity [34]: 70%
- residual activity [35]: 100%
- residual activity [36]: 100%
- residual activity [37]: 99%
- residual activity [38]: 97%
- residual activity [39]: 100%
- residual activity [40]: 91%
- inhibition [41]: 5.21%
- residual activity [42]: 98%
- residual activity [43]: 89%
- residual activity [44]: 100%
- residual activity [45]: 100%
